Earlier results in paper PMC3401522 (ACS Chemical Biology, 2011).

Tested on: JIP-JNK interaction sites

IC50: 0.5 µM
SMILES: O=c1[nH]nc(Sc2ncc([N+](=O)[O-])s2)n1-c1ccc2c(c1)OCCO2 [BI-78D3]
